Assay results reported in US20050031537A1, “Multifunctional COX-2 inhibitors” (priority 2002, published 2005).

Columns and labels:
PTEN = assay: Western and Northern blotting for expression of PTEN (test (e)); assay type: cell-based, human; conditions: for Test (e) at least 50% increase in expression of PTEN: positive in 184B5, 184B5/HER, HCA7, HCT116, SKBR3 and BT474 cells
Protocol: We turn now to criterion (e), i.e., at least 50% increase in expression of PTEN.
PTEN is a tumor suppressor that inhibits cell proliferation and induces programmed cell death. PTEN (also know as MMAC-1 or TEP-1) is described in Yamada, K. M., et al, Journal of Cell Science 114, 2375-2382, the whole of which is incorporated herein by reference.
(§1) Western blotting and Northern blotting techniques were used to evaluate the expression of PTEN. The expression of PTEN was evaluated in HCA7, HCT116, SKBR3, 184B5/HER, 184B5 and BT474 cells. 5×10^6cells were used to treat either vehicle alone or the test compound. The Western blotting analysis was performed as described above except anti-PTEN antibody was used to probe the blot. The antibody was obtained from Santa Cruz Biotechnology, Inc. CA. Northern blotting for PTEN was performed as described above and cDNA for PTEN as described in Tamura, M., et al, Science 5; 280 (5369):1614-1617 (1998), was used as a probe.

Nrf-2 = assay: Western and Northern blotting for expression of Nrf-2 (test (g)); assay type: cell-based, human; conditions: positive in 184B5, 184B5/HER, HCA7, HCT116, SKBR3, BT474 and CaSki cells
Protocol: We turn now to criterion (g), i.e. at least 50% increase in expression of Nrf-2. […] 13, 2001).
as §1, with “Nrf-2.” for “PTEN.”, “Nrf-2” for “PTEN”, “SKBR3, CaSki,” for “SKBR3,”, “anti-Nrf-2” for “anti-PTEN”, “Gong, P.,” for “Tamura, M.,”, “al., J.Biol Chem 20; 276:27018-27025 (2001)” for “al, Science 5; 280 (5369):1614-1617 (1998),”

[1] = tested on: HPV16 oncoproteins E6 and E7; assay: Western and Northern blotting for HPV16 oncoproteins E6 and E7 (test (d)); assay type: cell-based, human papillomavirus; conditions: for Test (d) at least 50% downregulation of expression of HPV16 oncoproteins E6 and E7: positive in CaSki and SiHa cells
Protocol: We turn now to the criterion (d), that is at least 50% downregulation of expression of HPV16 oncoproteins E6 and E7.
Protein E6 and E7 which are expressed by HPV16 are believed to play a major role in carcinogenesis.
Western blotting and Northern blotting techniques were used to evaluate the expression of HPV E6 and E7 proteins. The cell lines used for the study were CaSKi and SiHa. The cells were treated with the test compound and cell lysate was obtained as described above and subjected to Western blotting analysis. The Western blotting analysis was performed as described above except anti-HPV 16 E7 antibody was used to probe the blot. The antibody was obtained from Santa Cruz Biotechnology, Inc. CA. For Northern blotting, total cellular RNA was isolated from cell monolayers using an RNA isolation kit from QIAGEN Inc. after treatment with the test compound. 10 μg of total cellular RNA per lane were electrophoresed in a formaldehyde-containing 1.2% agarose gel and transferred to nylon-supported membranes. After baking, membranes were prehybridized overnight in a solution containing 50% formamide, 5×sodium chloride-sodium phosphate-EDTA buffer (SSPE), 5×Denhardt's solution, 0.1% SDS and 100 μg/ml single-stranded salmon sperm DNA and then hybridized for 12 h at 42° C. with radiolabeled cDNA probes for human HPV16 E6 or E7 cDNAs and 18S rRNA. E6 and E7 (as described in Woodworth, C. D., Cancer Res. 16, 4397-4402 (2000)) and 18S rRNA probes were labeled with [^32P]-CTP by random priming. After hybridization, membranes were washed twice for 20 min at room temperature in 2×SSPE-0.1% SDS, twice for 20 min in the same solution at 55° C., and twice for 20 min in 0.1×SSPE-0.1% SDS at 55° C. Washed membranes were then subjected to autoradiography.

cyclin D1 = assay: Western blotting for expression of cyclin D1 (test (c)); assay type: cell-based, human; conditions: for Test (c) at least 50% downregulation of expression of cyclin D1: positive in 184B5, 184B5/HER cells, 24 h, Western blot
Protocol: Cyclin D1 is a protein that is important in regulating cell proliferation and is described in Ortega, S., et al, Biochimica et Biophysica Acta 1602, 73-87, (2002), the whole of which is incorporated by reference. […] Effects on expression of cyclin D1 was investigated in 184B5, 184B5/HER, HCA7, HCT116, SKBR3 and BT474 cells. The expression was assessed in cells after treatment with test compound or vehicle using 5×10^4 cells for 24 hours. Western blotting technique was used as follows to assess the expression levels of cyclin D1 in cells treated with the test compound and compared to levels in cells treated with vehicle alone. Cell lysates were prepared by treating cells with lysis buffer as described above. […] The resolved proteins were transferred onto nitrocellulose sheets. The nitrocellulose membrane was then incubated with anti-cyclin D1 antiserum. Secondary antibody to IgG conjugated to horseradish peroxidase was used. The various antisera were purchased from Santa Cruz Biotechnology, Inc., CA. The blots were probed with the Renaissance Western blot detection system according to the manufacturer's instructions (PerkinElmer Life Sciences, Boston, Mass.).

[2] = 184B5 cells, 24 hours, Western blotting

| Structure (SMILES) | Test (e) at least 50% increase in expression of PTEN (PTEN) | Test (g) at least 50% increase in expression of Nrf-2 (Nrf-2) | Test (d) at least 50% downregulation of expression of HPV16 oncoproteins E6 and E7 [1] | Test (c) at least 50% downregulation of expression of cyclin D1 (cyclin D1) | increase in amounts of PTEN (PTEN; [2]) [%] | decrease in amounts of E6 mRNA ([1]; CaSki cells, 24 hours, 0-5.0 μM, Northern blotting) | inhibition of HPV16 E7 protein ([1]; CaSki cells, 24 hours, 0-5.0 μM, high concentration, Western blot) | decrease in level of cyclin D1 (cyclin D1; [2]) |
| --- | --- | --- | --- | --- | --- | --- | --- | --- |
| CS(=O)(=O)c1ccc(-n2nc(C(F)(F)F)cc2-c2ccc(F)cc2)cc1 [SC-58125, 4-[5-(4-fluorophenyl)-3-(trifluoromethyl)-1H-pyrazol-1-yl]benzenemethylsulfone] | + (A plus sign in the table indicates a positive result, that is meeting the test for each cell line as indicated above as providing a positive result) | + (A plus sign in the table indicates a positive result, that is meeting the test for each cell line as indicated above as providing a positive result) | + (A plus sign in the table indicates a positive result, that is meeting the test for each cell line as indicated above as providing a positive result) | + (A plus sign in the table indicates a positive result, that is meeting the test for each cell line as indicated above as providing a positive result) |  |  |  |  |
| COc1ccc(OC(=O)Cc2c(C)n(C(=O)c3ccc(Cl)cc3)c3ccc(OC)cc23)cc1 [Indomethacin Analog 3, 1-(p-chlorobenzoyl)-5-methoxy-2-methyl-1H-indole-3-acetic acid, 4-methoxyphenyl ester] |  | + (A plus sign in the table indicates a positive result, that is meeting the test for each cell line as indicated above as providing a positive result) |  |  |  |  |  |  |
| NS(=O)(=O)c1ccc(-n2nc(C(F)(F)F)cc2-c2ccc(Cl)cc2)cc1 [SC-236, 4-[5-(4-chlorophenyl)-3-(trifluoromethyl)-1H-pyrazol-1-yl]benzenesulfonamide] | + (A plus sign in the table indicates a positive result, that is meeting the test for each cell line as indicated above as providing a positive result) | + (A plus sign in the table indicates a positive result, that is meeting the test for each cell line as indicated above as providing a positive result) | + (A plus sign in the table indicates a positive result, that is meeting the test for each cell line as indicated above as providing a positive result) | + (A plus sign in the table indicates a positive result, that is meeting the test for each cell line as indicated above as providing a positive result) | > 100 | greater than 50% | greater than 50% | more than 50% |
| CCCCCCCOC(=O)Cc1c(C)n(C(=O)c2ccc(Cl)cc2)c2ccc(OC)cc12 [Indomethacin Analog 1, indomethacin heptyl ester] | + (A plus sign in the table indicates a positive result, that is meeting the test for each cell line as indicated above as providing a positive result) | + (A plus sign in the table indicates a positive result, that is meeting the test for each cell line as indicated above as providing a positive result) | + (A plus sign in the table indicates a positive result, that is meeting the test for each cell line as indicated above as providing a positive result) |  |  |  |  |  |
| Cc1ccc(-c2cc(C(F)(F)F)nn2-c2ccc(S(N)(=O)=O)cc2)cc1 [Celecoxib] | + (A plus sign in the table indicates a positive result, that is meeting the test for each cell line as indicated above as providing a positive result) | + (A plus sign in the table indicates a positive result, that is meeting the test for each cell line as indicated above as providing a positive result) | + (A plus sign in the table indicates a positive result, that is meeting the test for each cell line as indicated above as providing a positive result) | + (A plus sign in the table indicates a positive result, that is meeting the test for each cell line as indicated above as providing a positive result) |  |  |  |  |
